Test results as given in patent publication US9132131B2, “Use of adenosine A3 receptor agonists for treatment of neuropathic pain” (Saint Louis University, priority 2011, dated 2015).

Key:
[1] = tested on: SKBR3 breast cancer cells; assay: MTT cell survival assay, SKBR3; assay type: cell-based, human
Experimental: Cells were cultured and assayed in DMEM (SKBR3; human breast cancer cells), L15 (SW480; human colon cancer cells) or RPMI […] (RPMI 8226; human multiple myeloma cells) supplemented with heat-denatured 10% FBS and penicillin/streptomycin at 37° C., 0% (SW480) or 5% CO2 (SKBR3 and RPMI 8226), 95% humidity. The antitumor activities of these agents were measured in cells (6.25×10^4 cells/well) cultured overnight in 24-well plates (SKBR3 and SW480; BD Biosciences) or 12 mm×7.5 mm culture tubes (RPMI 8226; BD Biosciences) in complete media. […] Two naïve control wells were included as a control for 100% survival. Cell survival was determined using a MTT (3-(4,5-dimethylthiazol-2-yl)-2,5-diphenyltetrazolium bromide) assay adapted from a previously described assay. Cells were incubated with MTT (500 μg/ml) for 75 minutes at 37° C., 0% or 5% CO2, 95% humidity, removing the media and dissolving the tetrazolium crystals in isopropanol. […] The antitumor effects of IB-MECA alone were determined as % Survivability=(A560-570 nm of chemotherapeutic vehicle+IB-MECA)/(mean A560-570 nm of the naïve control wells)×100. The LD50 of each chemotherapeutic agent+IB-MECA or its vehicle was calculated using three-parameter non-linear analysis using % Survivability=(A560-570 nm of chemotherapeutic+IB-MECA or its vehicle)/(mean A560-570 nm chemotherapeutic vehicle+vehicle of IB-MECA)×100. The top and bottom plateaus were constrained using GraphPad Prism v5.03 (GraphPad Software, Inc.).

[2] = tested on: paclitaxel-induced neuropathic pain; assay: Paclitaxel-induced neuropathic pain (mechano-allodynia, mechano-hyperalgesia); assay type: in vivo, rats
[3] = tested on: oxaliplatin-induced neuropathic pain; assay: Oxaliplatin-induced neuropathic pain (mechano-allodynia, mechano-hyperalgesia); assay type: in vivo, rats
[4] = tested on: bortezomib-induced neuropathic pain; assay: Bortezomib-induced neuropathic pain (mechano-allodynia, mechano-hyperalgesia); assay type: in vivo, rats
Experimental: Bortezomib or vehicle (5% Tween 80, 5% ethanol) was injected i.p. in rats on five consecutive days (D0-D4; 0.2 mg/kg) for a final cumulative dose of 1 mg/kg (G. J. Bennett and W. H. Xiao, personal communication). Test substances or their vehicle were given i.p. (0.2 ml) 30 min before the chemotherapeutic agent or its vehicle on D0 (baseline) and then daily until D15 or D17. Behavioral responses (mechano-allodynia and mechano-hyperalgesia) were measured on D0 prior to the first i.p. injection of the chemotherapeutic agent and subsequently at various time points. If testing coincided with a day when rats received test substance, behavioral measurements were taken always before the injection of the test substance. Chemotherapeutic treatments result in bilateral allodynia and hyperalgesia without differences in left and right paw withdrawal threshold (PWT, grams) in any group at any time point, thus values from both paws were averaged.
Behavioral testing. […] The plantar aspect of hindpaws were probed three times with calibrated von Frey filaments (Stoelting, mice: 0.07-2.00 grams; rats: 0.407-26 grams) according to the “up-and-down” method. […] Mechanical threshold was assessed three times at each time point to yield a mean value, reported as PWT (grams). […] Mechano-hyperalgesia was assessed in rats by the Randall and Sellitto paw pressure test using an analgesiometer (Ugo Basile). […]

[5] = tested on: CCI of the sciatic nerve (mechano-allodynia); assay: CCI model of neuropathic pain, mechano-allodynia (von Frey PWT); assay type: in vivo, mice
Experimental: CCI model of neuropathic pain. CCI to the sciatic nerve of the left hind leg in mice was performed under general anaesthesia using the well-characterized Bennett model. Briefly, mice (weighing 25-30 g at the time of surgery) were anesthetized with 3% isoflurane/100% O2 inhalation and maintained on 2% isoflurane/100% O2 for the duration of surgery. The left thigh was shaved, scrubbed with Nolvasan® and a small incision (1-1.5 cm in length) was made in the middle of the lateral aspect of the left thigh to expose the sciatic nerve. The nerve was loosely ligated around the entire diameter of the nerve at three distinct sites (spaced 1 mm apart) using silk sutures (6.0). The surgical site was closed with a single muscle suture and a skin clip. Pilot studies established that under our experimental conditions peak mechano-allodynia develops by day 5-day 7 (D5-D7) following CCI. Test substances or their vehicles were given subcutaneously (s.c.), intraperitoneally (i.p.) or orally by gavage (0.1 ml) at peak mechano-allodynia (D7).
Behavioral testing. […] The plantar aspect of hindpaws were probed three times with calibrated von Frey filaments (Stoelting, mice: 0.07-2.00 grams; rats: 0.407-26 grams) according to the “up-and-down” method. […] Briefly, each rat was placed in a Plexiglas chamber (28×40×35-cm, wire mesh floor) and after its acclimation, a servo-controlled mechanical stimulus was applied to the plantar surface that exerted a progressively increasing punctate pressure up to 50 grams within 10 seconds. Mechanical threshold was assessed three times at each time point to yield a mean value, reported as PWT (grams). […] Mechano-hyperalgesia was assessed in rats by the Randall and Sellitto paw pressure test using an analgesiometer (Ugo Basile). The nociceptive threshold was defined as the force (grams) at which the rat withdrew its paw (cut off set at 250 grams).
Determining ED50 values. Dose response data were curve-fitted using the least sum of square method by a normalized 4-parameter, variable slope non-linear analysis of the % Reversal of Mechano-allodynia in CCI and % Prevention of Mechano-allodynia or Mechano-hyperalgesia in CIPN using GraphPad Prism (Release 5.03, GraphPad Software, Inc.) from which the ED50 was determined and reported with the 95% confidence interval (95% CI). In the CCI model, the % Reversal of Mechano-allodynia=(PWT1h−PWTD7)/(PWTD0−PWTD7)×100, where PWTD0=Paw Withdrawal Threshold (g) at D0, PWT1h=Paw Withdrawal Threshold (g) at 1 hour after the administration of IB-MECA, gabapentin, amitriptyline, or combinations of IB-MECA with gabapentin or amitriptyline, and PWTD7=Paw Withdrawal Threshold (grams) at D7 prior to drug administration.
Statistical Analysis. Data are expressed as mean±SD for n animals. Behavioral data were analyzed by two-way repeated measures ANOVA with Bonferroni comparisons (full time course studies) or one-way ANOVA Dunnett's comparisons (1 hour behavioral data). The dose response curves were compared to a globally fitted curve using the extra sum-of-squares F-test comparisons to determine whether the data represented distinct curves between treatments. Significant differences were defined at a P<0.05. All statistical analysis was performed using GraphPad Prism (v5.03, GraphPad Software, Inc.).

CNC(=O)[C@H]1O[C@@H](n2cnc3c(NCc4cccc(I)c4)ncnc32)[C@H](O)[C@@H]1O [IB-MECA, N^6-(3-iodobenzyl)-adenosine-5′-N-methyluronamide]
effect on the antitumor effects of paclitaxel, oxaliplatin or bortezomib ([1]; IB-MECA 10 nM, human breast, colon and multiple myeloma cancer cells): did not diminish | decrease in cell survival when used alone ([1]; IB-MECA 10 nM, stated for the cell lines tested (SKBR3, SW480, RPMI 8226)): < 20% | effect of higher doses on the cell lines ([1]; doses above 10 nM, all three cell lines): direct antitumor effects | effect on paclitaxel-induced neuropathic pain ([2]; 0.02-0.2 μmol/kg/d i.p. D0-D15): dose-dependently attenuated | effect on PWT when administered alone (vehicle groups) ([2]; IB-MECA 0.2 μmol/kg/d in any of the chemotherapy models, MRS1523 5 μmol/kg/d): did not affect PWT | neuropathic pain after discontinuation of treatment on D15 ([2]; paclitaxel model, followed through D25): did not emerge through D25 | D16 ED50, prevention of paclitaxel-induced mechano-allodynia ([2]; rats, daily i.p. D0-D15): 0.02 µmol/kg/day | D16 ED50, prevention of paclitaxel-induced mechano-hyperalgesia ([2]; rats, daily i.p. D0-D15): 0.03 µmol/kg/day | effect on development of oxaliplatin-induced neuropathic pain ([3]; 0.02-0.2 μmol/kg/d D0-D17): attenuated dose-dependently | neuropathic pain upon drug termination ([3]; oxaliplatin model, through D25): did not emerge upon drug termination | D17 ED50, prevention of oxaliplatin-induced mechano-allodynia ([3]; rats, daily D0-D17): 0.05 µmol/kg/day | D17 ED50, prevention of oxaliplatin-induced mechano-hyperalgesia ([3]; rats, daily D0-D17): 0.06 µmol/kg/day | effect on development of bortezomib-induced mechano-allodynia and mechano-hyperalgesia ([4]; 0.2 μmol/kg/d (not shown)): blocked the development | neuropathic pain after treatment was discontinued on D17 ([4]; bortezomib model): did not emerge | anti-allodynic effect of low dose alone ([5]; 0.2 μmol/kg): devoid of anti-allodynic effects | reversal of mechano-allodynia on consecutive daily injections ([5]; 0.5 μmol/kg i.p. daily D8-D15, compared to D7): reversed mechano-allodynia to the same degree as observed on D7 | effect on PWT in contralateral paws ([5]; D7 after CCI, drug alone): lacked effect | time of maximal reversal of mechano-allodynia ([5]; after single administration on D7): ≤ 1 h | onset of reversal of allodynia ([5]; i.p. on D7): 30 min | Emax, reversal of mechano-allodynia ([5]; mice, D7 after CCI, drug alone): 100% | ED50, reversal of mechano-allodynia ([5]; mice, D7 after CCI, ipsilateral paw, at time of maximal reversal, drug alone (IB-MECA i.p., morphine s.c., gabapentin i.p., amitriptyline oral)): 0.4 µmol/kg | reversal of mechano-allodynia in ipsilateral paws ([5]; single dose D7, IB-MECA 0.2-2, CI-IB-MECA 0.6, MRS1898 0.5 μmol/kg i.p., morphine 0.11-35 s.c., gabapentin 18-584 i.p., amitriptyline 3-191 μmol/kg oral): reversed allodynia
